Several values for one entry are separate records, joined by “and”; a condition that tells them apart may be missing. Identical values can stand only once.
What was measured:
[1] = test system: LXFA 983/9N4 (Lung, adeno); assay: Oncotest Exp H331: growth of LXFA 983 lung tumor xenograft after dosing with B-RAF inhibitor; type: in vivo, mice; details: H331-2, 100 mg/kg/day, Days 0-21; for Absolute tumor volume: (a*b*b)/2 / Relative tumor volume: individual tumors; for Absolute tumor volume: (a*b*b)/2 / Relative tumor volume / Absolute body weight / Relative body weight: listed as G-026887; for Absolute body weight, Median / Relative body weight, Median / Absolute tumor volume: (a*b*b)/2, Median / Relative tumor volume, Median: group median; for Absolute body weight, Median / Relative body weight, Median: n 10; for Absolute tumor volume: (a*b*b)/2, Median / Relative tumor volume, Median: n 15; for Absolute body weight / Relative body weight: individual animals
Description: FIGS. 10-18 depict growth in lung tumor xenografts after dosing with GDC-0879.
The data are shown below, and in FIGS. 10-14 for Experiment H331 and FIGS. 15-18 for Experiment H327.

WT Raf isoforms = assay: Biochemical enzyme assay at physiological [ATP]
Description: FIG. 1 depicts Biochemical enzyme assay data.

[2] = test system: pMEK levels in non-B-Raf^V600E lines; assay: pMEK levels / Raf/MEK/ERK pathway induction by Raf inhibitors; type: cell-based
[3] = test system: Venus-C-RAF / CFP-K-RAS in HEK293T cells; assay: C-RAF plasma membrane translocation, live cell confocal imaging; type: cell-based; parameters: dose or concentration left out as unconfirmed
Description: Aliquots of the membrane and cytosolic fractions were immunoblotted with the indicated antibodies. (B) HEK293T cells were transiently transfected with Venus-C-RAF (green), CFP-K-RAS (red) and mCherry-H2B (blue).

[4] = test system: pERK in BRAF V600E cells expressing EGFR; assay: pERK MSD assay, basal and EGF-stimulated; type: cell-based; details: serum starved, -EGF or +EGF
Method: (A) Table of genotype and EGFR levels among lines tested. (B) Measurement of basal and stimulated pERK levels: cells were treated with […] compound in serum free media for 1 hour. For stimulation 20 ng/ml EGF was added for 5 min before cells were lysed. Lysates were transferred to an MSD plate where phospho- and total ERK levels were measured. (C) pERK IC50 data are plotted for the two Raf inhibitors (CHR-265, 1-methyl-5-[[2-[5-(trifluoromethyl)-1H-imidazol-2-yl]-4-pyridinyl]oxy]-N-[4-(trifluoromethyl)phenyl]-1H-Benzimidazol-2-amine and GDC-0879) under basal and EGF-stimulated conditions.
FIG. 29 summarizes certain RAF inhibitor (GDC-0879, PLX-4720 and “Raf inh a” which is 2,6-difluoro-N-(3-methoxy-1H-pyrazolo[3,4-b]pyridin-5-yl)-3-(propylsulfonamido)benzamide) potencies for blocking cellular pERK induction in response to EGF stimulation.

[5] = test system: patient-derived melanoma and non-small cell lung cancer tumor models; assay: Primary human tumor xenograft models, time to tumor doubling; type: in vivo, mice; details: 100 mg/kg daily
Method: FIG. 8A depicts the duration and extent of BRAF pathway inhibition determines B-Raf inhibitor, GDC-0879 efficacy in primary human tumor xenograft models. A Kaplan-Meier plot showing time to tumor doubling for patient-derived melanoma and non-small cell lung cancer tumor models treated daily with 100 mg/kg GDC-0879 or vehicle. Genotypes for BRAF, N-ras and K-ras are indicated.
The Ras GTPase family controls numerous downstream signaling cascades in response to signals that regulate cellular processes including proliferation and survival. While Ras is one of the most prevalent targets for gain-of-function mutations in human tumors, questions remain regarding how the Ras effector pathway functions in mutant K-ras-driven tumorigenesis. Since an important function of K-ras involves B-Raf activation within the canonical MAPK signaling pathway, we initiated a study to determine B-Raf's role in the context of mutant K-ras-driven tumor promotion and maintenance. […] See, FIG. 8A, showing time to tumor doubling.

Question: What does the source list for OCCn1cc(-c2ccc3c(c2)CC/C3=N\O)c(-c2ccncc2)n1 [GDC-0879, 2-{4-[(1E)-1-(hydroxyimino)-2,3-dihydro-1H-inden-5-yl]-3-(pyridine-4-yl)-1H-pyrazol-1-yl}ethan-1-ol]?
Answer: Absolute tumor volume: (a*b*b)/2 ([1]; study day 10): 431.7 mm3 and 379.3 mm3 and 329.5 mm3 and 539.0 mm3 and 964.8 mm3 and 404.0 mm3 and 612.5 mm3 and 525.4 mm3 and 528.2 mm3 and 302.6 mm3 and 570.0 mm3 and 348.5 mm3 and 372.6 mm3 and 406.6 mm3; Relative tumor volume ([1]; study day 10): 269.9% and 368.3% and 313.3% and 350.2% and 392.5% and 406.6% and 646.4% and 763.8% and 427.1% and 473.3% and 406.9% and 259.8% and 630.2% and 247.8%; Absolute body weight, Median ([1]; study day 14): 28.6 g; Relative body weight, Median ([1]; study day 14): 99.5%; Absolute tumor volume: (a*b*b)/2, Median ([1]; study day 14): 578.8 mm3; Relative tumor volume, Median ([1]; study day 14): 580.3%; Absolute body weight ([1]; study day 14): 26.8 g and 27.2 g and 28.2 g and 25.5 g and 29.1 g and 25.8 g and 29.4 g and 30.2 g and 28.9 g and 30.3 g; Relative body weight ([1]; study day 14): 97.1% and 98.5% and 101.1% and 103.3% and 97.7% and 99.0% and 104.0% and 94.2% and 100.0% and 104.7%; Absolute tumor volume: (a*b*b)/2 ([1]; study day 14): 578.8 mm3 and 655.5 mm3 and 545.9 mm3 and 574.3 mm3 and 1411.2 mm3 and 581.0 mm3 and 1115.4 mm3 and 951.3 mm3 and 891.1 mm3 and 318.2 mm3 and 597.5 mm3 and 390.2 mm3 and 510.0 mm3 and 499.4 mm3; Relative tumor volume ([1]; study day 14): 620.2% and 493.8% and 541.3% and 580.3% and 418.3% and 594.7% and 929.7% and 1390.9% and 773.4% and 798.5% and 427.9% and 272.4% and 705.6% and 339.1%; Absolute body weight, Median ([1]; study day 17): 28.8 g; Relative body weight, Median ([1]; study day 17): 100.8%; Absolute tumor volume: (a*b*b)/2, Median ([1]; study day 17): 742.6 mm3; Relative tumor volume, Median ([1]; study day 17): 719.8%; Absolute body weight ([1]; study day 17): 27.2 g and 27.6 g and 28.5 g and 25.8 g (2×) and 29.5 g (2×) and 30.6 g and 29.0 g and 30.7 g; Relative body weight ([1]; study day 17): 98.4% and 100.0% and 102.6% and 104.4% and 98.9% and 100.3% and 104.0% and 94.6% and 101.3% and 105.1%; Absolute tumor volume: (a*b*b)/2 ([1]; study day 17): 705.7 mm3 and 742.6 mm3 and 701.1 mm3 and 841.5 mm3 and 1708.0 mm3 and 642.0 mm3 and 1229.4 mm3 and 1327.1 mm3 and 1247.1 mm3 and 426.5 mm3 and 778.8 mm3 and 520.5 mm3 and 606.4 mm3 and 758.4 mm3; Relative tumor volume ([1]; study day 17): 860.5% and 602.1% and 613.3% and 745.2% and 612.8% and 719.8% and 1027.1% and 1533.1% and 1078.9% and 1117.5% and 573.5% and 355.0% and 941.4% and 403.2%; Absolute body weight, Median ([1]; study day 21): 29.0 g; Relative body weight, Median ([1]; study day 21): 103.5%; Absolute tumor volume: (a*b*b)/2, Median ([1]; study day 21): 958.8 mm3; Relative tumor volume, Median ([1]; study day 21): 826.5%; Absolute body weight ([1]; study day 21): 28.6 g and 27.5 g and 29.3 g and 26.9 g and 31.1 g and 26.6 g and 30.6 g and 31.0 g and 28.7 g and 31.6 g; Relative body weight ([1]; study day 21): 101.3% and 105.1% and 102.2% and 107.3% (2×) and 103.1% and 105.8% and 98.1% and 102.6% and 104.0%; Absolute tumor volume: (a*b*b)/2 ([1]; study day 21): 893.3 mm3 and 1083.3 mm3 and 715.5 mm3 and 1030.4 mm3 and 1961.1 mm3 and 772.8 mm3 and 1472.3 mm3 and 1618.7 mm3 and 1461.9 mm3 and 550.0 mm3 and 958.8 mm3 and 609.2 mm3 and 712.9 mm3 and 874.7 mm3; Relative tumor volume ([1]; study day 21): 1511.3% and 762.1% and 894.7% and 760.5% and 750.4% and 826.5% and 1236.5% and 1836.0% and 1316.0% and 1309.9% and 739.6% and 437.1% and 1101.7% and 474.0%; potency in biochemical enzyme assay (WT Raf isoforms): maintains effective potency; effect on pMEK levels ([2]; after serum stimulation): Inhibitory effects of GDC-0879 predominate; effect on pMEK levels / c-Raf ([2]; basal conditions): bell-shaped curve; Venus-tagged C-RAF membrane translocation [3]: co-localizes with CFP-KRAS on the plasma membrane; blocking wildtype RAF signaling / selectivity (pERK induction in response to EGF) [4]: can more efficiently block wildtype RAF signaling; time to tumor doubling / tumor growth ([5]; K-ras-mutant non-small cell lung tumors such as LXFA 1041 and LXFA 983): significantly accelerated growth; time to tumor doubling / tumor progression ([5]; MEXF 989, MEXF 276, and MEXF 355 tumors): statistically significant (P<0.05) delay in tumor progression

— US20150164895A1, “DETERMINING SENSITIVITY OF CELLS TO B-RAF INHIBITOR TREATMENT BY DETECTING KRAS MUTATION AND RTK EXPRESSION LEVELS” (GENENTECH, INC., priority 2009, published 2015)
